Measured values as given in patent US8666675B2, “Computer method and system for predicting physical properties using a conceptual segment model” (Aspen Technology, Inc., priority 2004, dated 2014).

Assays:
[1] = Solvent characteristics (hydrophobic / polar / hydrophilic / complex); type: physicochemical
Description: […] conceptual segments were defined for nonelectrolyte molecules: a hydrophobic segment, a polar segment, a hydrophilic segment and a solvation segment. […] Real molecules in turn are used as reference molecules for the conceptual segments and available phase equilibrium data of these reference molecules are used to identify NRTL binary parameters for the conceptual segments. […] The study was focused on the 59 ICH solvents used in pharmaceutical process design.
Hydrocarbon solvents (aliphatic or aromatic), halogenated hydrocarbons, and ethers are mainly hydrophobic. Ketones, esters and amides are both hydrophobic and polar. Alcohols, glycols, and amines may have both substantial hydrophilicity and hydrophobicity. Acids are complex, with hydrophilicity, polarity, and hydrophobicity.

[2] = compiled from internet websites and Aspen Properties v2004.1; cited from earlier work
[3] = cited from earlier work

Molecule	Solvent characteristics [1]	dielectric constant at 298.15 K [2]	solubility ([3]; in chloroform and DMF, 298.15K)	solubility (data) ([3]; in benzene, cyclohexane, and heptane)
c1ccncc1 [PYRIDINE, Pyridine]	Polar	–	–	–
CCCO [1-PROPANOL, 1-Propanol]	Hydrophobic/	20.1	–	–
CCOCCO [2-ETHOXYETHANOL, 2-Ethoxyethanol]	Hydrophobic/	–	–	–
ClCCl [DICHLOROMETHANE, Dichloromethane]	Polar	8.9	–	–
CCO [ETHANOL, Ethanol]	Hydrophobic/	24.11	–	–
Cc1ccccc1 [TOLUENE, Toluene]	Hydrophobic	2.36	–	–
CC(C)CCO [3-METHYL-1-BUTANOL, 3-Methyl-1-butanol]	Hydrophobic/	14.7	–	–
C=C(Cl)Cl [1,1-DICHLOROETHYLENE, 1,1-Dichloroethylene]	Hydrophobic	4.6	–	–
methyl-butyl-ketone (2-hexanone)	Hydrophobic/Polar	14.6	–	–
CC(=O)CC(C)C [METHYL-ISOBUTYL-KETONE, Methyl-isobutyl-ketone]	Hydrophobic/Polar	13.1	–	–
Clc1ccccc1 [CHLOROBENZENE, Chlorobenzene]	Hydrophobic	5.56	–	–
COCCOC [1,2-DIMETHOXYETHANE, 1,2-Dimethoxyethane]	Polar	–	–	–
CC(C)c1ccccc1 [CUMENE, Cumene]	Hydrophobic	2.22	–	–
CCCCO [1-BUTANOL, 1-Butanol]	Hydrophobic/	17.7	–	–
CCCCCC [N-HEXANE, n-Hexane]	Hydrophobic	–	–	–
OCCO [Ethylene-glycol]	Hydrophilic	–	–	–
CC(C)O [ISOPROPYL-ALCOHOL, Isopropyl-alcohol]	Hydrophobic/	19.9	–	–
CCOCC [DIETHYL-ETHER, Diethyl-ether]	Hydrophobic	4.26	–	–
CC(=O)O [ACETIC-ACID, Acetic acid]	Complex	6.13	–	–
O=C(CCCN1CCC(O)(c2ccc(Cl)cc2)CC1)c1ccc(F)cc1 [Haloperidol]	–	–	unusually high solubilities	–
CCN(CC)CC [TRIETHYLAMINE, Triethylamine]	Hydrophobic/Polar	2.44	–	–

Molecule	Solvent characteristics [1]	dielectric constant at 298.15 K [2]	solubility ([3]; in chloroform and DMF, 298.15K)	solubility (data) ([3]; in benzene, cyclohexane, and heptane)
CCOC(C)=O [ETHYL-ACETATE, Ethyl-acetate]	Hydrophobic/Polar	6.02	–	–
CO [METHANOL, Methanol]	Hydrophobic/	32.62	–	–
O=S1(=O)CCCC1 [SULFOLANE, Sulfolane]	Polar	43.3	–	–
C[N+](=O)[O-] [NITROMETHANE, Nitromethane]	Polar	6.26	–	–
ClCCCl [1,2-DICHLOROETHANE, 1,2-Dichloroethane]	Hydrophobic	10.19	–	–
CCCCC [N-PENTANE, n-Pentane]	Hydrophobic	1.84	–	–
c1ccccc1 [BENZENE, Benzene]	Hydrophobic	2.27	–	–
O [WATER, Water]	Hydrophilic	78.54	–	–
COc1ccccc1 [ANISOLE, Anisole]	Hydrophobic	4.3	–	–
CCCCCCC [N-HEPTANE, n-Heptane]	Hydrophobic	1.92	–	–
COCCO [2-METHOXYETHANOL, 2-Methoxyethanol]	Hydrophobic/	–	–	–
C1CCOC1 [TETRAHYDROFURAN, Tetrahydrofuran]	Polar	7.52	–	–
CN1CCCC1=O [N-METHYL-2-PYRROLIDONE, N-Methyl-2-pyrrolidone]	Hydrophobic	33	–	–
CCOC=O [ETHYL-FORMATE, Ethyl-formate]	Polar	7.16	–	–
C1COCCO1 [1,4-DIOXANE, 1,4-Dioxane]	Polar	2.21	–	–
CC#N [ACETONITRILE, Acetonitrile]	Polar	36.97	–	–
c1ccc2c(c1)CCCC2 [1,2,3,4-TETRAHYDRONAPHTHALENE, 1,2,3,4-Tetrahydronaphthalene]	Hydrophobic	–	–	–
CCCCCO [1-PENTANOL, 1-Pentanol]	Hydrophobic/	13.9	–	–
Cc1cccc(C)c1 [M-XYLENE, m-Xylene]	Hydrophobic	2.24	–	–
ClC=C(Cl)Cl [TRICHLOROETHYLENE, Trichloroethylene]	Hydrophobic	3.42	–	–
C1CCCCC1 [CYCLOHEXANE, Cyclohexane]	Hydrophobic	2.02	–	–

Molecule	Solvent characteristics [1]	dielectric constant at 298.15 K [2]	solubility ([3]; in chloroform and DMF, 298.15K)	solubility (data) ([3]; in benzene, cyclohexane, and heptane)
CCC(C)O (stereo not drawn) [2-BUTANOL, 2-Butanol]	Hydrophobic/	15.8	–	–
CC(C)CO [ISOBUTANOL, Isobutanol]	Hydrophobic/	17.9	–	–
CC(Cl)(Cl)Cl [1,1,1-TRICHLOROETHANE, 1,1,1-Trichloroethane]	Hydrophobic	7.5	–	–
ClC(Cl)Cl [CHLOROFORM, Chloroform]	Hydrophobic	–	–	–
O=CO [FORMIC-ACID, Formic-acid]	Complex	–	–	–
ClC(Cl)(Cl)Cl [CARBON-TETRACHLORIDE, Carbon-tetrachloride]	Hydrophobic	2.23	–	–
NC=O [FORMAMIDE, Formamide]	Complex	109.5	–	–
ClC=CCl [1,2-DICHLOROETHYLENE, 1,2-Dichloroethylene]	Hydrophobic	4.6	–	–
O=C([O-])c1ccccc1O.[Na+] [sodium salicylate]	–	–	–	very low but measurable solubility
COC(C)(C)C [METHYL-TERT-BUTYL-ETHER, Methyl-tert-butyl-ether]	Hydrophobic	2.6	–	–
CN(C)C=O [N,N-DIMETHYLFORMAMIDE, N,N-Dimethylformamide]	Polar	38.3	–	–
CCCOC(C)=O [N-PROPYL-ACETATE, n-propyl-acetate]	Hydrophobic/Polar	6	–	–
CCCCOC(C)=O [N-BUTYL-ACETATE, n-Butyl-acetate]	Hydrophobic/Polar	5.1	–	–
CC(C)=O [ACETONE, Acetone]	Polar	20.83	–	–
CC(=O)OC(C)C [ISOPROPYL-ACETATE, Isopropyl-acetate]	Polar	–	–	–
CC(=O)OCC(C)C [ISOBUTYL-ACETATE, Isobutyl-acetate]	Polar	5.6	–	–
COC(C)=O [METHYL-ACETATE, Methyl-acetate]	Polar	6.68	–	–
CCC(C)=O [METHYL-ETHYL-KETONE, Methyl-ethyl-ketone]	Hydrophobic/Polar	18.5	–	–
CCCCCCCCO [1-OCTANOL, 1-Octanol]	Hydrophobic/	10.3	–	–
C[S+](C)[O-] [Dimethyl-sulfoxide]	Polar	47.2	–	–
CC1CCCCC1 [METHYLCYCLOHEXANE, Methylcyclohexane]	Polar	2.02	–	–
